Results as given in patent US6103729A, “Cathecol derivatives and a method for the preparation thereof and a pharmaceutical composition containing the same” (Cheil Jedang Corp., priority 1996, dated 2000).

Legend:
Wistar rats = assay: Passive Cutanious Anaphylaxis (PCA); type: in vivo, rat; conditions: oral, female Wistar rats, evans blue read at 620 nm
Protocol: I. Passive Cutanious Anaphylaxis (PCA)
Hair on the back of each of the three 5 weeks old female Wistar rats were cut by clippers. Prepared mouse antiserum was diluted with 50×physiological saline solution. 0.05 ml of diluted antiserum solution was subcutaneously injected into two hair-cut sites on the back of each rat. After 3 hours, the test compounds were orally administered to the rats. After 30 minutes, 0.1% ovalbumin as antigen was mixed with 1% evans blue in the equivalent volumes and 0.1 ml of the mixture was injected in a peripheral vein of the tail of each rat. After 30 minutes, rats were sacrificed by bleeding from the abdominal arteries and their skins were stripped from the subcutaneous injection spots in uniform sizes. After immersing the stripped skins in 1.0 ml of 1.2 N KOH in 9 ml test tube and stopping the tube, a shaking incubation was performed at 37° C. for 24 hours. Then, after the mixtured solution of acetone and 0.6 N phosphoric acid (13:5) was added, the test tube was shaking-incubated for 1 hour and centrifuged to 1,700 g at 20° C. for 10 minutes. After insoluble lipids were removed from the top of the supernatant, the supernatant was measured at 620 nm. IgE was quantified by diluting the mixtured acetone-phosphoric aicd solution and drawing evans blue assay lines. The results are shown in Table I below, in which the amounts of IgE were expressed as μg/ml.

Phosphodiesterase II = biological target: T1, Phosphodiesterase II (Homo sapiens, UniProt O00408); assay: Inhibition of phosphodiesterase activity ([3H]cAMP hydrolysis); type: biochemical; conditions: PDE partially purified from human U937 cells, 1.0 μM cAMP, 30° C., 20 minutes; test concentration not given
T1 construct: partially purified from human U937 cells; endogenous in cells; host or cells: U937 cells (partially purified)
T1 sequence (O00408 whole entry): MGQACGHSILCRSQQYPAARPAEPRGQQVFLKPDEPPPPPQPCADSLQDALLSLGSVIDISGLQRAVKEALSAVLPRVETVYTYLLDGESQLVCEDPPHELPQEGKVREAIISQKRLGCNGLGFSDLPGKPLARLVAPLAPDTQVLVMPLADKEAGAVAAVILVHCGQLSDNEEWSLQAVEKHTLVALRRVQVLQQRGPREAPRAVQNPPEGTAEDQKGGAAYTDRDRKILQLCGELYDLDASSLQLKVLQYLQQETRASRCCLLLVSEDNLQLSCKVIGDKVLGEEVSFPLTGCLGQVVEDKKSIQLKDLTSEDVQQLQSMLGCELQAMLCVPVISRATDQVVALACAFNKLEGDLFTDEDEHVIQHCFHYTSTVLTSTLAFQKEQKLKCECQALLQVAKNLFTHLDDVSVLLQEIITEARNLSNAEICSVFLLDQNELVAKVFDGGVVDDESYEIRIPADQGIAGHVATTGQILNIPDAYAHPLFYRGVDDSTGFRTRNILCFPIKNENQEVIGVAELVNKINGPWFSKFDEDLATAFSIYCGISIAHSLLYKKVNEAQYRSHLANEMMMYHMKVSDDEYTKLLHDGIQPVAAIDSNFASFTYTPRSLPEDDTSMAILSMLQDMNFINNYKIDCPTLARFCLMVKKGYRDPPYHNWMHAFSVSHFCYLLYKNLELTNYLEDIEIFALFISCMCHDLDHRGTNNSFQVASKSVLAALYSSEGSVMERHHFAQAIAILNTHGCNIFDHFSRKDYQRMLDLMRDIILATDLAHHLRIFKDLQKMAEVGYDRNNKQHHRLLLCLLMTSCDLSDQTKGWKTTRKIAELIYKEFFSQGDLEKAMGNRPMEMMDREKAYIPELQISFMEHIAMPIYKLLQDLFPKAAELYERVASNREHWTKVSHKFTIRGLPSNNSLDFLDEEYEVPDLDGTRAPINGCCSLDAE
Protocol: (§1) II. Inhibition of Phosphodiesterase IV Activity
(§2) Phosphodiesterase I, II, III, IV or V partially purified from human U937 cells, test compound of Example 1, 2 or 3 and 1.0 μM cAMP including μM [^3 H] cAMP were incubated at 30° C. for 20 minutes. The PDE reaction to convert cAMP into AMP was completed by boiling the reaction solution for 2 minutes. AMP was converted into adenosine by adding snake venom nucleotidase and incubating the reaction solution for 10 minutes. While unhydrolyzed cAMPs were bonded to AG1-X2 resin, the aqueous remaining [^3 H] adenosine was quantified by scintillation counting. The results are shown in Table II below, in which the values indicate inhibition(%) of each PDE by each test compound.

Phosphodiesterase III = assay: as above; type: biochemical; conditions: PDE partially purified from human U937 cells, 1.0 μM cAMP, 30° C., 20 minutes; test concentration not given
Protocol: as §1, §2

Phosphodiesterase IV = assay: as above; type: biochemical; conditions: PDE partially purified from human U937 cells, 1.0 μM cAMP, 30° C., 20 minutes; test concentration not given
Protocol: as §1, §2

Phosphodiesterase I = assay: as above; type: biochemical; conditions: PDE partially purified from human U937 cells, 1.0 μM cAMP, 30° C., 20 minutes; test concentration not given
Protocol: as §1, §2

Phosphodiesterase V = biological target: T2, Phosphodiesterase V (Homo sapiens, UniProt O76074); assay: as above; type: biochemical; conditions: PDE partially purified from human U937 cells, 1.0 μM cAMP, 30° C., 20 minutes; test concentration not given
T2 construct: printed source human U937 cells (possibly human platelets in practice)
Protocol: as §1, §2

Structure (SMILES)	amounts of IgE (Wistar rats; dose 0.1 mg/rat)	amounts of IgE (Wistar rats; dose 2.0 mg/rat)	inhibition(%) of Phosphodiesterase Type II (Phosphodiesterase II)	inhibition(%) of Phosphodiesterase Type III (Phosphodiesterase III)	inhibition(%) of Phosphodiesterase Type IV (Phosphodiesterase IV)	inhibition(%) of Phosphodiesterase Type I (Phosphodiesterase I)	inhibition(%) of Phosphodiesterase Type V (Phosphodiesterase V)
COc1ccc(C(=O)Nc2n[nH]cc2C(N)=O)cc1OC1CCCC1 [Example 1, 3-(3-cyclopentyloxy-4-methoxyphenylcarboxylamido)-1H-4-pyrazolecarboxylamide]	4.578 µg/mL	4.099 µg/mL	65%	68%	90%	58%	89%
COc1ccc(C(=O)Nc2nc[nH]c2C(N)=O)cc1OC1CCCC1 [Example 2]	3.381 µg/mL	2.694 µg/mL	60%	67%	80%	68%	61%
COc1ccc(C(=O)Nc2ccsc2C(N)=O)cc1OC1CCCC1 [Example 3]	–	–	68%	74%	90%	67%	69%
